Where “and” joins values, the source holds several entries; their conditions need not be identical. Equal entries are not always repeated.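 All cell lines were grown in 96-well plates and treated with compound for 48 hours. GI50 = concentration required for 50% inhibition of growth. TGI: concentration producing complete growth inhibition.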
Tests used:
Experiment in all cases: DTP human tumour cell line panel, 48 h
[1] = system: SNB-75 CNS
[2] = system: EKVX NSCLC
[3] = system: K-562 leukemia
[4] = system: HS 578T breast
[5] = system: SF-539 CNS
[6] = system: NCI-H226 lung
[7] = system: HCC-2998 colon
[8] = system: SF-268 CNS
[9] = system: CAKI-1 renal
[10] = system: TK-10 renal

Row | SMILES | GI50 [1] | TGI [1] | GI50 [2] | TGI [2] | GI50 [3] | TGI [3] | GI50 [4] | TGI [4] | GI50 [5] | TGI [5] | GI50 [6] | TGI [6] | GI50 [7] | TGI [7] | GI50 [8] | TGI [8] | GI50 [9] | TGI [9] | GI50 [10] | TGI [10]
1 | O=C(NN1C(=O)CSC1c1c(Cl)cccc1Cl)C(O)c1ccccc1 (configuration not stated) | 32.4 µM | > 100 µM | 59.6 µM | > 100 µM | 29.7 µM | 76 µM | > 100 µM | > 100 µM | > 100 µM | > 100 µM | 38.1 µM | > 100 µM | 64.3 µM | > 100 µM | 60 µM | > 100 µM | 23.9 µM | > 100 µM | 78.9 µM | > 100 µM
2 | Nc1nc(N)c2c(n1)CCC(S(=O)(=O)c1ccc3ccccc3c1)C2 (configuration not stated) | 12.2 µM | > 100 µM |  | > 100 µM | 0.315 µM | 63.6 µM | 5.05 µM | 77.6 µM |  | > 100 µM |  | > 100 µM |  | 26.7 µM |  | > 100 µM |  | > 100 µM |  | 51.4 µM
3 | O=C(CN1CCN(C(=O)c2ccco2)CC1)Nc1ccc(Cl)cc1C(=O)c1ccccc1Cl | 2.73 µM | 28.3 µM | 5.53 µM | 30 µM | 0.691 µM | 10.5 µM | 10.8 µM | 33 µM | 13.6 µM | 26.9 µM | 13.3 µM | 44.8 µM | 14.8 µM | 29.4 µM | 14.7 µM | 43.1 µM | 0.0273 µM | 6.42 µM | 10.2 µM | 36.2 µM
4 | O=C(CCN1CCCN(c2cnc3ccccc3n2)CC1)c1csc2ccccc12 | 17.2 µM | 31.6 µM | 19.6 µM | 38.7 µM | 20 µM | 48.6 µM | 20 µM | 51.5 µM | 18.9 µM | 33.2 µM | 21.1 µM | 38.5 µM | 16.9 µM | 33.2 µM | 19.4 µM | 38.6 µM | 17.8 µM | 31.7 µM | 16.1 µM | 29.5 µM
5 | CC#CC#C/C(=C/C=CC(=O)OC)SC |  | > 100 µM |  | > 100 µM |  | > 100 µM |  | > 100 µM |  | > 100 µM |  | > 100 µM |  | > 100 µM |  | > 100 µM |  | > 100 µM |  | > 100 µM
6 | CCN(CC)CC(O)c1cc(-c2ccc(Cl)cc2)nc2c(C)c(Cl)ccc12 (configuration not stated) | 1.37 µM | 2.65 µM | 1.46 µM | 2.9 µM | 1.66 µM | 4.26 µM | 1.87 µM | 4.33 µM | 1.49 µM | 3.03 µM | 1.65 µM | 3.18 µM | 1.77 µM | 3.23 µM | 1.61 µM | 3.05 µM | 1.29 µM | 2.69 µM | 1.85 µM | 3.28 µM
7 | CCOc1ccc2c(c1)C(=O)c1c-2n(CCCN=[N+]=[N-])c(=O)c2cc([N+](=O)[O-])ccc12 | 17.3 µM | 39.9 µM | 32.5 µM | > 100 µM | 17.2 µM | > 100 µM | 45.9 µM | > 100 µM | 3.88 µM | 19 µM | 2.24 µM | 9.92 µM | 19.1 µM | > 100 µM | 1.42 µM | 38.4 µM | 5.71 µM | 89.2 µM | 30.8 µM | > 100 µM
8 | Cc1[nH]nc(C(=O)N/N=C/c2ccccc2Cl)c1N=NN(C)C |  | > 100 µM |  | > 100 µM |  | > 100 µM |  | > 61.9 µM |  | > 29.9 µM |  | > 100 µM |  | > 100 µM |  | > 100 µM |  | > 100 µM |  | > 100 µM
9 | CC(C)C1=CC2=C(C(=O)C1=O)C13CCCC(C)(C)C1CC2OC3=O (configuration not stated) |  | 63.8 µM |  | 31.7 µM |  | 19.7 µM |  | > 100 µM |  | 46.3 µM |  | 49.2 µM |  | 46.3 µM |  | 55.8 µM |  | 44.1 µM |  | 28.6 µM
10 | NC1(C(=O)N[C@@H](CCO)c2ccc(Cl)cc2)CCN(c2ncnc3[nH]ccc23)CC1 | 0.245 µM and 0.11 µM | > 3.28 µM and 2.19 µM | 7.46 µM | > 100 µM | > 5.28 µM and 59.9 µM | > 100 µM | 0.177 µM and 0.421 µM |  | 0.223 µM and 0.417 µM | 2.42 µM and 13.2 µM | 2.14 µM and 7.92 µM | > 83.4 µM | > 2.1 µM and 8.17 µM | > 100 µM | > 2.26 µM and 32.2 µM | > 100 µM | > 2.14 µM and 14.1 µM | > 100 µM | 1.04 µM and 2.56 µM | > 69.7 µM
